Data on three compounds can be found in article PMC4463418, “The Effect of Hydrophobic Monoamines on Acid-Sensing Ion Channels ASIC1B” (Acta Naturae, 2015).

Molecules are shown by their SMILES.

What all share (format): cell-based
The target in test [1] is T1, ASIC1b (Rattus norvegicus, UniProt P55926).
T1 construct: gene Asic1; homomeric rASIC1b (splice variant) expressed in CHO cells
T1 sequence (P55926 186-526 limits assumed): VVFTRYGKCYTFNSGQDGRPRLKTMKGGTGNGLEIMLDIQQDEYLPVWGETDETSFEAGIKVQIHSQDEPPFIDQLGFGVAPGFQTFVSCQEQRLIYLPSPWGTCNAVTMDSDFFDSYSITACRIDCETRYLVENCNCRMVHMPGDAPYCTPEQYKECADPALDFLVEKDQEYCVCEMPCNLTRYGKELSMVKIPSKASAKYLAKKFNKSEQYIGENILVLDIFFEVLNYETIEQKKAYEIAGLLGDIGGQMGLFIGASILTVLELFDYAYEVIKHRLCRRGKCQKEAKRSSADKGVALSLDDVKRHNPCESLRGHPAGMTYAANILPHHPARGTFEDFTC
Description: whole-cell patch clamp, CHO cells, activation at pH […]. (Patch clamp records ionic current or voltage across a cell membrane.)

Test [2] concerns the target T1, ASIC1b. Description: whole-cell patch clamp, CHO cells, block at […], pH […].
For test [3], the target named is T1, ASIC1b. Description: whole-cell patch clamp, CHO cells, inhibition at […].

A word on the IC50: it is the concentration that gives 50% inhibition. With `Nc1c2ccccc2nc2ccccc12` [9AA, 9-aminoacridine], at ASIC1b [1], it took 440 ± 20 µM to reach half-maximal inhibition (IC50). Usually inhibition stands for how much of the control response was suppressed. A high value points to strong suppression. Compound `N=C(N)NC(=O)c1nc(Cl)c(N)nc1N` [amiloride] yielded an inhibition at 30 µM at ASIC1b [2] of 53 ± 7%. As to `CC12CC3CC(C)(C1)CC(N)(C3)C2` [memantine], on ASIC1b [3], 1000 µM produced 44 ± 16% inhibition.
